# Measured values taken from EP2311457A1, “Pharmaceutical compositions for treating infections with drug resistant mycobacteria” (priority 2009, dated 2011).
# Test system: Mtb H37Rv ATCC 272945
# Test: Drug susceptibility testing, radiometric MIC determination (BACTEC 460TB)
# Settings: Mycobacterium tuberculosis, ATCC272945|H37RV, read-out: minimal inhibitory concentrations
# Method: Drug susceptibility testing (DST) was performed with the broth-based radiometric BACTEC 460TB system (Becton Dickinson Diagnostic Systems, Sparks, MD) which is considered the laboratory "gold standard". The standard protocol for DST and determination of MICs was strictly followed as recommended by the manufacturers.
row,Compound,MIC [µg/mL]
1,"C(=NNc1nncc2ccccc12)c1ccc(OCc2ccccc2)cn1 [PH22-6, 5-benzyloxypyridine-2-aldehyde-1'-phthalazinylhydrazone]",5
2,"Cc1ccc(C=NNc2ccc3ccccc3n2)nc1 [PH22-14, 5-methylpyridine-2-aldehyde-2'-quinolylhydrazone]",0.5
3,"c1ccc(C(=NNc2ccc3ccccc3n2)c2ccccn2)cc1 [PH22-15, 2-benzoylpyridine-2'-quinolylhydrazone]",0.25
4,"Cc1ccc(C=NNc2nncc3ccccc23)nc1 [PH22-16, 5-methyl-pyridine-2-aldehyde-1'-phthalazinylhydrazone]",< 1
5,"c1ccc(C(=NNc2nncc3ccccc23)c2ccccn2)cc1 [PH22-22, 2-benzoylpyridine-1'-phthalazinylhydrazone]",5
6,"Cc1cccc(NN=Cc2ccccn2)n1 [PH22-31, pyridine-2-aldehyde-6'-methyl-2'-pyridylhydrazone]",< 1
7,"CCc1ccc(C=NNc2cc(OC)ncn2)nc1 [PH22-33, 5-ethylpyridine-2-aldehyde-6'-methoxy-4'-pyrimidylhydrazone]",< 0.125
8,"C(=NNc1ccccn1)c1ccc(OCc2ccccc2)cn1 [PH22-49, 5-benzyloxypyridine-2-aldehyde-2'-pyridylhydrazone]",5
9,"Clc1ccc(NN=Cc2ccc(OCc3ccccc3)cn2)nn1 [PH22-51, 5-benzyloxypyridine-2-aldehyde-6'-chloro-3'-pyridazinylhydrazone]",1
10,"C(=NNc1ncnc2ccccc12)c1ccc(OCc2ccccc2)cn1 [PH22-52, 5-benzyloxypyridine-2-aldehyde-4'-quinazolinylhydrazone]",1 to 5

# Test system: Murine bone marrow derived macrophages
# Test: not given
# Settings: not given
row,Compound,toxicity as measured by MTT assay
1,"CCc1ccc(C=NNc2cc(OC)ncn2)nc1 [PH22-33, 5-ethylpyridine-2-aldehyde-6'-methoxy-4'-pyrimidylhydrazone]",No toxicity was observed
